# Patent US20100330029A1, “Cancer Treatments with Radiation and Immunocytokines” (Merck Patent GmbH, priority 2008, published 2010)
# Tests used:
# Assay type in all cases: in vivo, mice
# [1] = system: CT26 colon carcinoma; test: tumor growth assay, CT26 model; conditions: Experiment CT26-4; 8 Gy followed by i.v. EMD521873 days 2, 3, 4
# From the text: CT26 cells, a murine colon epithelial cell line derived by intrarectal injection of N-nitroso-N-methylurethane in BALB/C mice, were transfected to express the human KS antigen (KSA or EpCAM) that was cloned by PCR and expressed in parental cells using a retroviral vector (Gillies 1998). CT26/KSA cells were maintained in DMEM, supplemented with 10% heat inactivated fetal bovine serum, L-glutamine, vitamins, sodium pyruvate, non-essential amino acids, penicillin/streptomycin and Geneticin® (G418) (Life Technologies, Inc.) at 37° C. and 7% CO2. G418 was added to maintain KSA expression. CT26 and CT26/KSA cells were implanted in female BALB/C mice.
# For the tumor growth assay, cells growing exponentially in culture were injected as a single cell suspension in 100 μl of PBS intramuscularly into the upper legs of the mice. In experiments using a dual tumor model, cells were also implanted in the flanks of the mice. […] Thereafter, animal survival was monitored. […] Mice were treated on days 0 to 6 and day 17, and tumor size was measured twice weekly for the duration of the study.
# Tumors were measured with calipers in three dimensions for the duration of the experiment. Tumor volumes were calculated using the equation: […]
# In the CT26 model (Experiment CT26-4), tumors were irradiated with either 4 or 8 Gy followed by i.v. EMD521873 on days 2, 3, and 4. […] Immune response in the tumor was not monitored.
# [2] = system: immune response markers in the tumor; test: immune marker gene expression profiles in B16 tumors; conditions: 10 Gy d0 followed by EMD521873, compared to either therapy alone
# Description: (§1) Gene profiling of tumors was analyzed using excised tumor tissues placed in RNAlater® RNA stabilizing reagent upon harvest. Total RNA was prepared with an RNeasy® kit (Qiagen) and cDNA was prepared with the Superscript® III kit for qPCR (Life Technologies, Inc.). qPCR reactions were performed on an ABI7500 instrument in a standardized fashion and relative changes in gene expression were analyzed using the ddCt method (efficiency factor 95%). Housekeeping genes used for comparison included ACTB, B2M and HPRT1.
# In addition, there was a moderate, but significant increase in certain immune response markers in the tumor as measured by immune marker gene expression profiles with CD25, TNFA, TYROBP, ICOS and CD45 being modulated >4-fold compared to either therapy alone.
# [3] = system: immune markers in LLC tumors; test: immune gene expression profiling of LLC tumors; conditions: for CD3 gene expression increase / CD8 gene expression increase / CISH gene expression increase / CXCL9 gene expression increase / IFNg gene expression increase: LLC-6; for CD3 gene expression increase: EMD521873+chemoradiation vs EMD521873 or chemoradiation alone; for CD8 gene expression increase / CISH gene expression increase / CXCL9 gene expression increase / IFNg gene expression increase: EMD521873+chemoradiation vs either alone
# Description: as §1
# [4] = system: CD8 effector cells in the blood; test: FACS analysis of blood, LLC dual tumor model; conditions: Experiment LLC-6; combination compared to either chemoradiation or EMD521873 alone
# Description: Immune effector cell populations in blood were analyzed by FACS. Blood was collected from the retro-orbital sinus of each mouse. Red blood cells were eliminated using lysis buffer. After blocking with rat IgG (1:50), samples were incubated with a 7-color cocktail of antibodies against CD4, CD8, CD25, CD44, CD62L, CD11b, and DX5. Samples were run on a FacsARIA and analyzed for various cell subpopulations.
# In another experiment, LLC tumors were established subcutaneously in both the leg and flank of the same animal. Animals were then treated with either cisplatin (4 mg/kg, d0) plus fractionated radiation given to the leg tumor (3.6 Gy/d, d0-4), i.v. EMD521873 alone (5 mg/kg, d7, 8, 9), or the combination of EMD521873 plus chemoradiation (Experiment LLC-6). Tumor growth and immune response in both the irradiated leg tumor and the non-irradiated flank tumor were monitored. […] CD8 effector cells were increased by approximately 4-fold in the blood with the combination compared to either chemoradiation or EMD521873 alone.
# [5] = LLC-13, radiation in the 2 weeks prior to EMD521873
# [6] = LLC-13, radiation in the first week followed by EMD521873
substance,measurement,setting,value
dI-NHS76γ2(h)(FN>AQ)-ala-IL2(D20T) [EMD521873],tumor growth,[1],blocked tumor growth beyond either therapy alone
same,"CD25, TNFA, TYROBP, ICOS and CD45 gene expression modulated in the tumor",[2],> 4 fold
same,"gene expression profiling, panel of immune markers","[3]; Experiments LLC-1, LLC-2, radiation plus EMD521873 compared to either alone","increases in markers for T cell, T cell activation, lymphocyte trafficking, and Th1 response"
same,CD3 gene expression increase,[3]; flank tumor (non-irradiated),8 fold
same,CD8 gene expression increase,[3]; flank tumor,3.5 fold
same,CISH gene expression increase,[3]; flank tumor,3.2 fold
same,CXCL9 gene expression increase,[3]; flank tumor,14 fold
same,IFNg gene expression increase,[3]; flank tumor,7 fold
same,CD3 gene expression increase,[3]; leg tumor (irradiated),> 20 fold
same,CD8 gene expression increase,[3]; leg tumor,10 fold
same,CISH gene expression increase,[3]; leg tumor,5.8 fold
same,CXCL9 gene expression increase,[3]; leg tumor,10.5 fold
same,IFNg gene expression increase,[3]; leg tumor,14 fold
same,"12 immune expression markers (GZMB, PDCD1, NKG7, NKG2D, CD3G, ITGAL, CD122, CD8A, FASL, CTLA4, INOS, CD25) upregulated","[3]; LLC-8, LLC-9, EMD521873 plus chemoradiation relative to the maximal level achieved in the monotherapies",3 to 6 times
same,immune gene response profile,"[3]; LLC-11, EMD521873 followed by radiation, compared to EMD521873 or either radiation regimen alone",not significantly affected
same,immune response in the tumor (immune gene profiling),"[3]; LLC-12, EMD521873 during the 2nd week of a 3 week course of radiation vs 1 week or 2 week course",blunted
same,CD3 fold-induction compared to untreated control,[3]; [5],~14 fold
same,CD8 fold-induction compared to untreated control,[3]; [5],~6 fold
same,CD25 fold-induction compared to untreated control,[3]; [5],~22 fold
same,IFNγ fold-induction compared to untreated control,[3]; [5],~10 fold
same,granzyme fold-induction compared to untreated control,[3]; [5],~2 fold
same,perforin fold-induction compared to untreated control,[3]; [5],~5 fold
same,immune response gene profile in the tumor,"[3]; LLC-13, radiation in the 3 weeks prior to EMD521873",nearly complete abrogation of the immune response
same,CD3 fold-induction compared to untreated control,[3]; [6],~50 fold
same,CD8 fold-induction compared to untreated control,[3]; [6],~19 fold
same,CD25 fold-induction compared to untreated control,[3]; [6],~45 fold
same,IFNγ fold-induction compared to untreated control,[3]; [6],~22 fold
same,granzyme fold-induction compared to untreated control,[3]; [6],~22 fold
same,perforin fold-induction compared to untreated control,[3]; [6],~8 fold
same,CD8 effector cells increased in the blood,[4],approximately 4 fold
